Reference: ChEMBL document CHEMBL5661943, “ASAP - In vitro antiviral effect” (2024)
pEC50: −log10 of the molar value. Values joined by “and” are separate entries in the source; they are usually repeats but may differ in a detail not shown here. Equal entries are not always repeated.

Assays:
Zika virus [1] = assay: EC50 is reported via analysis of immunofluorescence staining. The assay has been performed by Icahn School of Medicine at Mount Sinai.; assay type: functional, organism-based, Chlorocebus sabaeus, VeroE6/TMPRSS2; settings: for EC90: P-gp concentration 2 uM, P-gp inhibitor Elacidar
dengue virus type 2 [2] = assay: Functional immunofluorescence assay to measure dose dependent changes in antiviral-drug inhibitory efficacy against Dengue virus type 2 Thailand/16681/84 in Vero E6/TMPRSS2 cells (cotreated with P-gp inhibitor, Elacridar). Cells are treated with antiviral candidates that are serially diluted, following infection, cells are fixed. EC50 is reported via analysis of immunofluorescence staining. The assay has been performed by Icahn School of Medicine at Mount Sinai.; assay type: organism-based, Chlorocebus sabaeus, VeroE6/TMPRSS2; settings: Dengue virus; for EC90: P-gp concentration 2 uM, P-gp inhibitor Elacidar
Zika virus [3] = assay: Functional CPE-based assay to measure dose dependent changes in antiviral-drug inhibitory efficacy against Zika virus MR766 in Vero E6 miRFP670 cells (cotreated with P-gp inhibitor, CP100356). Cells are treated with antiviral candidates that are serially diluted. EC50 is reported via analysis of MTS assay as a readout of CPE. The assay has been performed by KU Leuven.; assay type: organism-based, Chlorocebus sabaeus, Vero C1008; settings: for EC90: P-gp concentration 500 nM, P-gp inhibitor CP100356
dengue virus type 2 [4] = assay: Functional assay to measure dose dependent changes in antiviral-drug inhibitory efficacy against Dengue virus type 2 New Guinea C in Vero E6 miRFP670 cells (cotreated with P-gp inhibitor, CP100356). Cells are treated with antiviral candidates that are serially diluted, following infection, cells are fixed. EC50 is reported via analysis of fluorescence intensity using high-content imager. The …; assay type: organism-based, Chlorocebus sabaeus, Vero C1008; settings: for EC90: P-gp concentration 500 nM, P-gp inhibitor CP100356

Question: Which results are given for `NCc1cccc([C@@H]2C[C@H]2c2cc(Cl)cc(NC(=O)OCc3ccccc3)c2)c1`?
Answer: pEC50 (Zika virus [1]; Zika virus, VeroE6/TMPRSS2): < 5.26; EC90 (Zika virus [1]; Zika virus, VeroE6/TMPRSS2, Maximum measured 125.497 %, Minimum measured 83.326 %): > 5.56 µM; pEC50 (dengue virus type 2 [2]; VeroE6/TMPRSS2): < 5.26; EC90 (dengue virus type 2 [2]; VeroE6/TMPRSS2, Maximum measured 134.824 %, Minimum measured 97.991 %): > 5.56 µM

Question: How did the pEC50 (Zika virus [1]; Zika virus, VeroE6/TMPRSS2) turn out when `O=C(Nc1cc(Cl)cc(C(=O)Nc2cccc([C@H]3CCNC3)c2)c1)OCc1ccccc1` was run?
Answer: 4.37

Question: And the EC90 (Zika virus [1]; Zika virus, VeroE6/TMPRSS2, Baseline response 0 %, Hill slope -21.619, Maximum measured 167.541 %, Maximum response 100 %, Minimum measured 3.263 %, R squared 0.234)?
Answer: 47.3 µM

Question: What about the pEC50 (dengue virus type 2 [2]; VeroE6/TMPRSS2) of the same molecule?
Answer: < 5.26

Question: What about the EC90 (dengue virus type 2 [2]; VeroE6/TMPRSS2, Maximum measured 260.488 %, Minimum measured 106.051 %) of the same molecule?
Answer: > 5.56 µM

Question: What does the source list for `O=C(Nc1ccc2c(c1)CNC2)c1cc(Br)cc2[nH]c([C@H]3CCOC3)nc12`?
Answer: pEC50 (Zika virus [3]; Zika virus, Vero C1008): 6.04; EC90 (Zika virus [3]; Zika virus, Vero C1008, Baseline response 0 %, Hill slope 2.359, Maximum measured 80.04 %, Maximum response 100 %, Minimum measured 15.463 %, R squared 0.714): > 1.56 µM; pEC50 (Zika virus [1]; Zika virus, VeroE6/TMPRSS2): < 5.26; EC90 (Zika virus [1]; Zika virus, VeroE6/TMPRSS2, Maximum measured 90.854 %, Minimum measured 45.403 %): > 5.56 µM; pEC50 (dengue virus type 2 [4]; Dengue virus, Vero C1008): < 5.51; EC90 (dengue virus type 2 [4]; Dengue virus, Vero C1008, Baseline response 0 %, Hill slope -2.03, Maximum measured 96.655 %, Maximum response 100 %, Minimum measured 50.768 %, R squared 0.853): > 3.12 µM

Question: Which EC90 (Zika virus [3]; Baseline response 0 %, EC90 CI (lower) 3.438 uM, EC90 CI (upper) 13.705 uM, Hill slope 5.727, Maximum measured 103.141 %, Maximum response 100 %, Minimum measured 2.231 %, R squared 0.527) does the source give for `COCCNC(=O)[C@H](Nc1ccc2c(c1)CNC2)c1cc(Cl)cc(C2CC2)c1` here?
Answer: 6.86 µM

Question: What about the EC90 (Zika virus [3]; Baseline response 0 %, Hill slope 2.264, Maximum measured 83.807 %, Maximum response 100 %, Minimum measured -2.671 %, R squared 0.978) of the same molecule?
Answer: > 50 µM

Question: And the pEC50 (Zika virus [3]; vero c1008)?
Answer: 4.59 and 5.33

Question: And the EC90 (Zika virus [1]; Baseline response 0 %, Hill slope -0.71, Maximum measured 110.043 %, Maximum response 100 %, Minimum measured 53.247 %, R squared 0.662)?
Answer: > 5.56 µM

Question: What about the pEC50 (Zika virus [1]; Zika virus, VeroE6/TMPRSS2) of the same molecule?
Answer: < 5.26

Question: What about the EC90 (Zika virus [1]; Zika virus, VeroE6/TMPRSS2, Baseline response 0 %, Hill slope -0.244, Maximum measured 65.627 %, Maximum response 50 %, Minimum measured 21.531 %, R squared 0.09) of the same molecule?
Answer: > 5.56 µM

Question: What about the pEC50 (dengue virus type 2 [4]; Dengue virus, Vero C1008) of the same molecule?
Answer: 4.40

Question: And the EC90 (dengue virus type 2 [4]; Dengue virus, Vero C1008, Maximum measured 154.141 %, Minimum measured 87.25 %)?
Answer: > 50 µM

Question: What about the EC90 (dengue virus type 2 [4]; Dengue virus, Vero C1008, Baseline response 0 %, Hill slope -1.76, Maximum measured 106.994 %, Maximum response 100 %, Minimum measured 48.696 %, R squared 0.783) of the same molecule?
Answer: > 50 µM

Question: And the pEC50 (dengue virus type 2 [4]; vero c1008)?
Answer: < 4.30

Question: How did the pEC50 (Zika virus [3]; Zika virus, Vero C1008) turn out when `Nc1cc(Cl)cc(C(=O)Nc2ccc3c(c2)CNC3)c1N` was run?
Answer: < 4.30

Question: What about the EC90 (Zika virus [3]; Zika virus, Vero C1008, Baseline response 0 %, Hill slope 0.699, Maximum measured 36.917 %, Maximum response 100 %, Minimum measured 3.264 %, R squared 0.811) of the same molecule?
Answer: > 50 µM

Question: What about the pEC50 (dengue virus type 2 [4]; Dengue virus, Vero C1008) of the same molecule?
Answer: < 4.30

Question: What about the EC90 (dengue virus type 2 [4]; Dengue virus, Vero C1008, Baseline response 0 %, Hill slope 0.309, Maximum measured 103.631 %, Maximum response 100 %, Minimum measured 71.641 %, R squared 0.1) of the same molecule?
Answer: > 50 µM

Question: And the pEC50 (dengue virus type 2 [2]; VeroE6/TMPRSS2)?
Answer: 4.38

Question: And the EC90 (dengue virus type 2 [2]; VeroE6/TMPRSS2, Baseline response 0 %, Hill slope -3.096, Maximum measured 144.717 %, Maximum response 100 %, Minimum measured 36.673 %, R squared 0.131)?
Answer: > 50 µM

Question: With `O=C(Nc1ccc2c(c1)CNC2)c1cc(F)cc(-c2c[nH]c(=O)c(F)c2)c1` as the molecule, how does the pEC50 (Zika virus [3]; Zika virus, Vero C1008) read?
Answer: < 4.30

Question: And the EC90 (Zika virus [3]; Zika virus, Vero C1008, Maximum measured 1.475 %, Minimum measured -1.93 %)?
Answer: > 50 µM

Question: What about the pEC50 (dengue virus type 2 [4]; Dengue virus, Vero C1008) of the same molecule?
Answer: < 4.60

Question: And the EC90 (dengue virus type 2 [4]; Dengue virus, Vero C1008, Baseline response 0 %, Hill slope 1.228, Maximum measured 158.309 %, Maximum response 100 %, Minimum measured 64.759 %, R squared 0.303)?
Answer: > 25 µM

Question: `O=C(Nc1ccc2c(c1)CNC2)c1cc(F)cc2[nH]c(-c3cnc(C4CC4)o3)nc12` was tested. Which EC90 (Zika virus [3]; Baseline response 0 %, Hill slope 1.364, Maximum measured 18.791 %, Maximum response 100 %, Minimum measured -1.808 %, R squared 0.107) did it give?
Answer: > 50 µM

Question: And the pEC50 (Zika virus [3]; Zika virus, Vero C1008)?
Answer: < 4.30

Question: What about the EC90 (Zika virus [3]; Zika virus, Vero C1008, Baseline response 0 %, Hill slope 2.704, Maximum measured 11.553 %, Maximum response 100 %, Minimum measured -5.923 %, R squared 0.137) of the same molecule?
Answer: > 50 µM

Question: What about the EC90 (dengue virus type 2 [4]; Baseline response 0 %, EC90 CI (lower) 0.872 uM, EC90 CI (upper) 3.596 uM, Hill slope -8.389, Maximum measured 102.302 %, Maximum response 100 %, Minimum measured 7.049 %, R squared 0.894) of the same molecule?
Answer: 2.99 µM

Question: What about the pEC50 (dengue virus type 2 [4]; Dengue virus, Vero C1008) of the same molecule?
Answer: 5.63

Question: What about the EC90 (dengue virus type 2 [4]; Dengue virus, Vero C1008, Baseline response 0 %, EC90 CI (lower) 0.484 uM, EC90 CI (upper) 7.419 uM, Hill slope -10.584, Maximum measured 98.644 %, Maximum response 100 %, Minimum measured 4.286 %, R squared 0.843) of the same molecule?
Answer: 2.87 µM

Question: And the pEC50 (dengue virus type 2 [4]; vero c1008)?
Answer: 5.64

Question: Which results are given for `N#C[C@H](Nc1ccc2c(c1)CNC2)c1cc(Cl)cc(C2CC2)c1`?
Answer: pEC50 (Zika virus [3]; Zika virus, Vero C1008): 4.71; EC90 (Zika virus [3]; Zika virus, Vero C1008, Baseline response 0 %, Hill slope 4.333, Maximum measured 75.439 %, Maximum response 100 %, Minimum measured -2.703 %, R squared 0.979): > 25 µM; pEC50 (dengue virus type 2 [4]; Dengue virus, Vero C1008): 4.34; EC90 (dengue virus type 2 [4]; Dengue virus, Vero C1008, Baseline response 0 %, Hill slope -4.312, Maximum measured 125.602 %, Maximum response 100 %, Minimum measured 40.399 %, R squared 0.668): > 50 µM; pEC50 (dengue virus type 2 [2]; VeroE6/TMPRSS2): < 4.78; EC90 (dengue virus type 2 [2]; VeroE6/TMPRSS2, Maximum measured 136.887 %, Minimum measured 85.602 %): > 16.7 µM
